Results as given in patent US9468624B2, “Small molecule antagonists of bacterial quorum-sensing receptors” (priority 2008, dated 2016).

Experiments:
[1] = target: T1, CviR (Chromobacterium violaceum, UniProt D3W065); type: cell-based; set-up: made in house; host or cells: E. coli BL21(DE3) pLysS, plasmid pET23b; details: for EC50: E. coli expressing CviR, vioA-gfp reporter, read-out: EC50 for activation of vioA-gfp expression; for maximal level of vioA-gfp expression: compared with C6-HSL; for induction of vioA-gfp expression through CviR: even at 100 μM
Description: (§1) The vioA-gfp promoter fusion was constructed by amplifying the vioA promoter and cloning this region upstream of gfp in pEVS141 at the SphI and SalI sites. Cells containing the vioA-gfp construct were electroporated with the pET23 carrying cviR and selected on LB medium supplemented with 75 μg/mL ampicillin and 50 μg/mL kanamycin. The E. coli strain containing cviR and the vio:gfp reporter is named ELS1257.
(§2) E. coli strains were grown overnight in LB medium with antibiotics at 37° C. and sub-cultured into fresh medium at a 1:100 dilution. Various AHL and antagonists were added at constant concentrations or titrated as stated. The gfp was measured on an Envision plate reader after 5 hours of growth at 37° C. C. violaceum strains were grown aerobically in 1 mL Nutrient Broth plus 1 mM tryptophan at 30° C. […] Cells were collected via centrifugation at 13000 rpm for 15 minutes. Pellets were resuspended in 1 mL of methanol and incubated at 42° C. for 1 hour. Samples were again collected via centrifugation at 13000 rpm for 5 minutes and analyzed for violacein by measuring optical density at 568 nm on a Beckman Coulter DU-800 spectrophotometer. For the dose-response analyses, all assays were performed in triplicate.
To examine the specificity and sensitivity of CviR, an E. coli strain was engineered that expresses CviR and contains a plasmid harboring the vioA promoter fused to green fluorescent protein (gfp). Thus, the ability of CviR to activate transcription can be assessed by measuring gfp expression in the presence of various molecules.

[2] = target: T1, CviR; type: binding; set-up: made in house; host or cells: E. coli BL21(DE3) pLysS, plasmid pET23b; details: for DNA binding of ligand-loaded CviR to vioA promoter: CviR 100-500 nM
Description: (§3) CviR Overexpression and Purification. CviR was overexpressed in BL21(DE3) pLysS by growing an overnight culture in LB supplemented with 100 μg/mL ampicillin and 10 μg/mL chloramphenicol. The culture was diluted 1:50 into fresh LB supplemented with 100 μg/mL ampicillin and 10 μg/mL chloramphenicol and grown shaking at 37° C. to an OD600 of 0.4. Various AHL or antagonist molecules were added to at 50 μM and incubated an additional 30 minutes at 30° C., after which expression was induced by the addition of 100 μM IPTG (isopropyl-β-D-thiogalactopyranoside) for 4 hours at 30° C. Cells were harvested by centrifugation and lysed in 20 mM imidazole pH 8.0, 100 mM NaCl, 0.5 mM EDTA and 5% glycerol via a Micro-fluidizer processor (MicroFluidics). Protein was purified via ion-exchange using a Hitrap Heparin HP column (GE Healthcare). Protein was eluted with a 100 mM to 1 M NaCl gradient. Fractions containing CviR were pooled and diluted in lysis buffer devoid of NaCl, and then further purified by cation exchange chromatography using a Hitrap SP HP column (GE Healthcare). CviR was eluted with a 100 mM to 1 M NaCl gradient.
DNA probes for gel mobility shift analyses were generated by standard polymerase chain reaction using primers with a 5′ 6-FAM (fluorescein) tag (Integrated DNA Technologies). The target probe contained about 100 nucleotides of the vioA promoter. The control probe contained 300 bases of vioB intergenic DNA. 37 ng of each probe was incubated for 20 minutes at room temperature with the indicated amounts of CviR (0, 0.1, 0.2, 0.3, 0.4 and 0.5 μM) and 1 μg/μL poly-dIdC in 1× Gel shift buffer (40 mM Tris HCl pH 8.0, 100 mM KCL, 2 mM EDTA, 2 mM DTT, 10% glycerol, 200 μg/mL BSA). Gel mobility shifts were performed on 6% TGE-polyacrylamide gels and visualized using a Storm 860 Imaging System (Molecular Dynamics).
To further investigate the mechanism underlying antagonism of the CviR receptor, an examination was undertaken of whether the soluble CviR antagonist complexes were incapable of binding DNA, and thus unable to activate transcription. […] The CviR protein was also purified in complex with each of the synthetic antagonist molecules, 4606-4237, CTL, and CL. Performance of DNA gel mobility shift analyses enabled assessment of the binding of each of these purified, loaded protein complexes to the vioA promoter.
The reciprocal experiment tested whether C6-HSL could replace CL bound to CviR.

[3] = target: T1, CviR; assay: cell-based; type: cell-based; set-up: made in house; host or cells: E. coli BL21(DE3) pLysS, plasmid pET23b; details: constant 500 nM C6-HSL; read-out: IC50 for inhibition of vioA-gfp expression
Description: as §1, §2
However, binding of the longer acyl-tail length AHL molecules disrupts the transcriptional activation ability of CviR.
To determine if 4606-4237 inhibits violacein production specifically by interfering with CviR, 4606-4237 was tested for antagonism of CviR in the recombinant E. coli vioA-gfp assay. For these experiments, C6-HSL was held constant at 500 nM, while 4606-4237 was titrated from 1.3 nM to 100 μM (FIG. 3D). […] Importantly, no C. violaceum components other than CviR are present in the recombinant E. coli assay strain. Thus, any inhibition occurring would be due to a specific interaction between the antagonist molecule 4606-4237 and CviR rather than an interaction of 4606-4237 with some unknown component required for violacein production in C. violaceum.

[4] = system: C. violaceum killing of C. elegans; assay: C. elegans life span assay following C. violaceum infection; type: in vivo, Caenorhabditis elegans; details: C. violaceum cviI mutant
Description: Life Span Assays. C. elegans lifespan assays were completed with at least 100 wild type N2 worms for each condition. C. elegans eggs were harvested from a large population of gravid adults using a standard bleaching protocol (30 mL 5% bleach, 15 mL N KOH, 55 mL DH2O). Harvested eggs were placed on lawns of fresh E. coli OP50 and allowed to hatch and grow to the young adult (L4) stage before being moved onto lawns of C. violaceum. Worms were scored for survival each day and transferred to new C. violaceum lawns every two days until all worms had expired.
In the presence of the mutant strain, the median C. elegans lifespan is twelve days (FIG. 7A; DMSO control). Exogenous addition of the native autoinducer molecule, C6-HSL restored quorum sensing and complemented the cviI mutant's ability to kill C. elegans (median lifespan=4 days, FIG. 7A).

[5] = system: CviR-dependent violacein production; assay: Violacein production in wild type C. violaceum, dose-response; type: cell-based; details: Chromobacterium violaceum, read-out: IC50 for inhibition of violacein production
Description: as §2
To determine if 4606-4237 inhibits violacein production specifically by interfering with CviR, 4606-4237 was tested for antagonism of CviR in the recombinant E. coli vioA-gfp assay. For these experiments, C6-HSL was held constant at 500 nM, while 4606-4237 was titrated from 1.3 nM to 100 μM (FIG. 3D). This concentration of native C6-HSL signal induces maximal gfp production in this heterologous assay system. Importantly, no C. violaceum components other than CviR are present in the recombinant E. coli assay strain. Thus, any inhibition occurring would be due to a specific interaction between the antagonist molecule 4606-4237 and CviR rather than an interaction of 4606-4237 with some unknown component required for violacein production in C. violaceum. […] Thus, 4606-4237 functions by disabling CviR-mediated activation of gene expression in both the C. violaceum in vivo violacein assay and the recombinant E. coli vioA-gfp assay.

[6] = system: bacterial growth; assay: Bacterial growth in presence of antagonist; type: cell-based, Chromobacterium violaceum
[7] = system: CviR-dependent violacein production; assay: Violacein production in C. violaceum cviI mutant with exogenous C6-HSL; type: cell-based, Chromobacterium violaceum; details: 5 μM C6-HSL, 50 μM antagonist
Description: as §2
High-throughput chemical library screens had identified 15 molecules that inhibit AHL detection by the membrane-bound two-component AHL receptor LuxN (structures are provided in FIG. 8A). Experiments were undertaken to establish whether any of these LuxN antagonist molecules could also interfere with AHL binding to CviR. […] The native C6-HSL signal was added exogenously and held constant at 5 μM and violacein production was measured in the presence of 50 μM of each potential antagonist (FIG. 8B).

[8] = target: T1, CviR; details: CviR expressed in E. coli, whole cell vs soluble extract, ligand 50 μM
Description: as §3
The solubility characteristics of CviR were analyzed in the presence of the various molecules under study. […] As controls, the protein was also expressed in the absence of any AHL or antagonist. In each case, whole cell and soluble fractions of cell lysates were analyzed by SDS-PAGE to assess whether the CviR protein in question had been stabilized.

T1 sequence (D3W065 1-265): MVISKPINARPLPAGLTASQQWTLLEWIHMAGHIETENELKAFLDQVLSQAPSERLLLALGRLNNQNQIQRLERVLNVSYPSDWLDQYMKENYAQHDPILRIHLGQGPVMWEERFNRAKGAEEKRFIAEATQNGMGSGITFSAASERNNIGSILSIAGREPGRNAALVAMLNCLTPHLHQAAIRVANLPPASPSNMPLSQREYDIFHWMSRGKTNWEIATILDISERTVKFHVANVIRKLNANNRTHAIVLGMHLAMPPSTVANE

| SMILES | EC50 [1] [nM] | DNA binding of ligand-loaded CviR to vioA promoter [2] | induction of vioA-gfp expression through CviR [1] | IC50 [3] [nM] | further results |
| --- | --- | --- | --- | --- | --- |
| CCCCCCCC(=O)N[C@H]1CCOC1=O [C8-HSL] | 30 | bound DNA with similar affinity to the C6-HSL loaded CviR complex |  |  | maximal level of vioA-gfp expression [1]: half of the maximal vioA-gfp expression induced by C6-HSL |
| CCCCCCCCCCCCCC(=O)N[C@H]1CCOC1=O [C14-HSL] |  | no ability to bind DNA | do not induce vioA-gfp expression | 268 |  |
| CCCCCCCCCCCC(=O)N[C@H]1CCOC1=O [C12-HSL] |  | no ability to bind DNA | do not induce vioA-gfp expression | 494 |  |
| Cc1cc(Cl)ccc1OCCCC(=O)NC1CCSC1=O (centres unmarked) [4606-4237, 4-(4-chloro-2-methylphenoxy)-N-(2-oxotetrahydrothiophen-3-yl)butanamide] |  | no ability to bind DNA |  |  | C. elegans median survival ([4]; C6-HSL 5 μM and 4606-4237 50 μM added simultaneously): twelve; effect on C. elegans ([4]; no C6-HSL, 4606-4237 50 μM): had little affect on C. elegans; IC50 [5]: 1200 nM; inhibition of bacterial growth [6]: does not inhibit bacterial growth; violacein production [7]: completely abolished violacein production |
| CCCC(=O)N[C@H]1CCOC1=O [C4-HSL] | 12000 |  |  |  | maximal level of vioA-gfp expression [1]: can induce maximal vioA-gfp expression |
| CCCCCC(=O)N[C@H]1CCOC1=O [C6-HSL, C6-homoserine lactone] | 75 | binds DNA with high affinity |  |  | median C. elegans lifespan ([4]; C6-HSL 5 μM added): 4 days; CviR folding and solubility in presence of ligand [8]: soluble; ligand exchange on loaded CviR, effect on DNA binding ([2]; 500 nM loaded CviR, competing ligand 0-10 μM): not likewise capable of replacing CL to generate fully competent DNA bound complex |
| CCCCCCCCCC(=O)N[C@H]1CCOC1=O [C10-HSL, reference compound] |  | does not abolish DNA binding | do not induce vioA-gfp expression | 208 | CviR folding and solubility in presence of ligand [8]: soluble |
